Source: publication PMC6544337, “Development of chimeric and bifunctional antagonists for CLR/RAMP receptors” (PLoS ONE, 2019)

Key:
[1] = target: CLR/RAMP2 receptor complex (UniProt Q16602)
[2] = target: CLR/RAMP2 receptor complex (UniProt Q16602); remark: listed apart in the source
CLR/RAMP1 = CLR/RAMP1 (Homo sapiens, UniProt O60894+Q16602); assay: CLR/RAMP1 cAMP assay, agonist mode (DiscoveRx HitHunter cAMP XS+); assay type: cell-based; details: for CLR/RAMP1 Max Activity % of control: agonist mode, positive control CGRP, 1321N1 cells
Description: (§1) The bioactivity of synthetic analogs was studied using cells that stably express CLR/RAMP1 (1321N1 cells) or CLR/RAMP2 (CHO-K1 cells) receptors using CLR/RAMP1 cAMP and CLR/RAMP2 arrestin assays from DiscoveRx (Fremont, Ca). In receptor-activation assays, the dose-dependent stimulatory response was studied in duplicate, at 10 different concentrations.
For the analysis of signaling in CLR/RAMP1-expressing cells, cAMP Hunter cell lines were expanded from freezer stocks, and cells were seeded in white walled, 384-well microplates and incubated at 37C for the appropriate time. The activity was determined using the DiscoveRx HitHunter cAMP XS+ assay. Media was aspirated from cells and replaced with 15 μl 2:1 HBSS/10mM Hepes:cAMP XS+ Ab reagent. Intermediate dilution of sample stocks was performed to generate 4X sample in assay buffer, and 5 μl of 4X sample was added to cells and incubated at 37C or room temperature for the appropriate time. Vehicle concentration was 1%.
Microplates were read with a PerkinElmer instrument for chemiluminescent signal detection.

CLR/RAMP2 = CLR/RAMP2 (Homo sapiens, UniProt O60895+Q16602); assay: CLR/RAMP2 PathHunter β-arrestin assay, agonist mode; assay type: cell-based; details: for CLR/RAMP2 Max Activity % of control: agonist mode, positive control ADM, CHO-K1 cells
Description: as §1
The CLR/RAMP2 signaling was assayed using the CLR/RAMP2 PathHunter β-Arrestin assay. In this assay, the GPCR was fused in frame with a small enzyme donor fragment ProLink (PK) and co-expressed in cells stably expressing a fusion protein of β-arrestin and an N-terminal deletion mutant of β-galactosidase (i.e., enzyme acceptor or EA). Activation of the CLR/RAMP2 stimulates binding of β-arrestin to the PK-tagged receptor and leads to an increase in enzyme activity that can be measured using chemiluminescent PathHunter Detection Reagents. PathHunter cell lines were seeded in white walled, 384-well microplates and incubated at 37C prior to testing. For agonist determination, intermediate dilution of sample stocks was performed to generate 5X sample in assay buffer, and 5 μl of 5X sample was added to cells and incubated at 37C for 90 minutes. Vehicle concentration was 1%. For antagonistic activity determination, cells were pre-incubated with antagonist followed by agonist challenge at the EC80 concentration.

[3] = target: CLR/RAMP1 receptor complex (UniProt Q16602)
CLR/RAMP1 receptor complex, sequence (Q16602 23-461, chain 1 of 2): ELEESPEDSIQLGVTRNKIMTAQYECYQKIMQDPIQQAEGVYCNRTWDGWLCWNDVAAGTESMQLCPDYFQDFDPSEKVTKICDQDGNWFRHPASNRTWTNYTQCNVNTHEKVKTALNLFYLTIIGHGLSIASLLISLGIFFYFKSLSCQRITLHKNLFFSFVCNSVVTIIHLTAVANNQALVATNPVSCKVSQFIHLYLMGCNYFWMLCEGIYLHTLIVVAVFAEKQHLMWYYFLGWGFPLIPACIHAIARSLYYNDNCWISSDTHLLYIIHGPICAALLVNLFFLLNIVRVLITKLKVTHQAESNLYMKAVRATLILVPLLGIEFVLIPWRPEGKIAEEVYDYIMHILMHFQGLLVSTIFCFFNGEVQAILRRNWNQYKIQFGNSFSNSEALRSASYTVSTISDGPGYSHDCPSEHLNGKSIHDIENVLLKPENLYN
CLR/RAMP1 receptor complex, sequence (O60894 27-148, chain 2 of 2, further chain): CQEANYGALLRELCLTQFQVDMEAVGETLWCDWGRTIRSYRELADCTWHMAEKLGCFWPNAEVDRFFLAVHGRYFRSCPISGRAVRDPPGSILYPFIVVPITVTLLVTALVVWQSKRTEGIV

CLR/RAMP2 receptor complex, sequence (Q16602 23-461, chain 1 of 2): as the sequence (Q16602 23-461, chain 1 of 2) above
CLR/RAMP2 receptor complex, sequence (O60895 43-175, chain 2 of 2, further chain): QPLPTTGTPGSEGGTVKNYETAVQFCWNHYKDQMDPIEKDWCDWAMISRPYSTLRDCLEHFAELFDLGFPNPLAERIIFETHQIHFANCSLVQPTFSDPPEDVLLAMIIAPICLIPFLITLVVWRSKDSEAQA
CLR/RAMP2, sequence (Q16602 23-461): as the sequence (Q16602 23-461, chain 1 of 2) above
CLR/RAMP2, sequence (O60895 43-175): as the sequence (O60895 43-175, chain 2 of 2, further chain) above
CLR/RAMP1, sequence (Q16602 23-461): as the sequence (Q16602 23-461, chain 1 of 2) above
CLR/RAMP1, sequence (O60894 27-148): as the sequence (O60894 27-148, chain 2 of 2, further chain) above

Molecule	EC50 of CLR/RAMP2 signalling (CHO-K1 cells, PathHunter β-Arrestin assay) [1]	IC50 of inhibition of ADM-mediated CLR/RAMP2 β-arrestin signalling (EC80 of ADM; pair blocked: ADM + m25) [2]	CLR/RAMP1 Max Activity % of control (CLR/RAMP1)	CLR/RAMP2 Max Activity % of control (CLR/RAMP2)	further results
adrenomedullin 2 (peptide)	70 nM				
CGRP8-37 (peptide)		> 10000 nM			
adrenomedullin 14–52 (peptide)	9 nM				
CC[C@H](C)[C@H](NC(=O)[C@H](CCC(N)=O)NC(=O)[C@H](Cc1c[nH]cn1)NC(=O)[C@H](C)NC(=O)[C@H](CC(C)C)NC(=O)[C@H](CCCCN)NC(=O)[C@H](CCC(N)=O)NC(=O)[C@@H](NC(=O)[C@@H](NC(=O)[C@@H]1CSSC[C@H](NC(=O)CNC(=O)[C@@H](N)CCCCN)C(=O)N[C@@H](CCCNC(=N)N)C(=O)N[C@@H](Cc2ccccc2)C(=O)NCC(=O)N[C@@H]([C@@H](C)O)C(=O)N1)[C@@H](C)O)C(C)C)C(=O)N[C@@H](Cc1ccc(O)cc1)C(=O)N[C@@H](CCC(N)=O)C(=O)N[C@@H](Cc1ccccc1)C(=O)N[C@H](C(=O)N[C@@H](CC(=O)O)C(=O)N[C@@H](CCCCN)C(=O)N[C@@H](CC(=O)O)C(=O)N[C@@H](CCCCN)C(=O)N[C@@H](CC(=O)O)C(=O)N[C@@H](CC(N)=O)C(=O)N[C@@H](CO)C(=O)N[C@@H](C)C(=O)N1CCC[C@H]1C(=O)N[C@H](C(=O)N[C@@H](CC(=O)O)C(=O)N1CCC[C@H]1C(=O)N[C@@H](CO)C(=O)N[C@@H](CO)C(=O)N1CCC[C@H]1C(=O)N[C@@H](Cc1c[nH]cn1)C(=O)N[C@@H](CO)C(=O)N[C@@H](Cc1ccc(O)cc1)C(N)=O)C(C)C)[C@@H](C)O [Agonist 2]			95 % of control	115 % of control	EC50 (CLR/RAMP1; 1321N1 cells stably expressing CLR/RAMP1, cAMP read-out, chemiluminescence, 10-point dose response, 3-fold dilution, in duplicate): 31 nM; EC50 (CLR/RAMP2; CHO-K1 cells stably expressing CLR/RAMP2, β-arrestin recruitment, 90 min at 37C, 10-point dose response in duplicate): 18 nM
CC[C@H](C)[C@H](NC(=O)[C@H](CCC(N)=O)NC(=O)[C@H](Cc1c[nH]cn1)NC(=O)[C@H](C)NC(=O)[C@H](CC(C)C)NC(=O)[C@H](CCCCN)NC(=O)[C@H](CCC(N)=O)NC(=O)[C@@H](NC(=O)[C@@H](NC(=O)[C@@H]1CSSC[C@H](NC(=O)CNC(=O)[C@@H](N)Cc2ccccc2)C(=O)N[C@@H](CCCNC(=N)N)C(=O)N[C@@H](Cc2ccccc2)C(=O)NCC(=O)N[C@@H]([C@@H](C)O)C(=O)N1)[C@@H](C)O)C(C)C)C(=O)N[C@@H](Cc1ccc(O)cc1)C(=O)N[C@@H](CCC(N)=O)C(=O)N[C@@H](Cc1ccccc1)C(=O)N[C@H](C(=O)N[C@@H](CC(=O)O)C(=O)N[C@@H](CCCCN)C(=O)N[C@@H](CC(=O)O)C(=O)N[C@@H](CCCCN)C(=O)N[C@@H](CC(=O)O)C(=O)N[C@@H](CC(N)=O)C(=O)N[C@H](C(=O)N[C@@H](C)C(=O)N1CCC[C@H]1C(=O)N[C@@H](CCCNC(=N)N)C(=O)N[C@@H](CO)C(=O)N[C@@H](CCCCN)C(=O)N[C@H](C(=O)N[C@@H](CO)C(=O)N1CCC[C@H]1C(=O)N[C@@H](CCC(N)=O)C(=O)NCC(=O)N[C@@H](Cc1ccc(O)cc1)C(N)=O)[C@@H](C)CC)C(C)C)[C@@H](C)O [ADM14-52, adrenomedullin 14–52, reference compound]			69 % of control	102 % of control	
ADM22-52 (peptide)		256 nM			IC50 of inhibition of CGRP-mediated CLR/RAMP1 cAMP signalling (EC80 of CGRP; pair blocked: m4 + m24) [3]: 6.6 µM
